In the supplement of paper PMC10307832:

Experiments:
Assay in all cases: relative viability (nuclei count vs DMSO), 5 days (fraction); higher = more cells survive
[1] = compound: CC(C)C[C@H](NC(=O)[C@H](CCc1ccccc1)NC(=O)CN1CCOCC1)C(=O)N[C@@H](Cc1ccccc1)C(=O)N[C@@H](CC(C)C)C(=O)[C@@]1(C)CO1 [Carfilzomib] + COc1cc2c(Oc3ccc(NC(=O)C4(C(=O)Nc5ccc(F)cc5)CC4)cc3F)ccnc2cc1OCCCN1CCOCC1 [Foretinib] (partner 0.25 µM)
How it was run: (§1)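 Relative viability divides the nuclei count in treated wells by that in vehicle wells. Lung cancer cell lines were seeded in 1536-well plates, dosed by pin tool the next day, and fixed and stained after 5 days in one step with final 0.05% Triton X-100, 1% formaldehyde and 1 ug/ml Hoechst. Dosing was a single drug or a fixed anchor-drug dose plus five library-drug doses (not always all listed) in √10 steps, and values are medians of duplicate plates imaged at 4×.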

[2] = compound: CC(C)C[C@H](NC(=O)[C@H](CCc1ccccc1)NC(=O)CN1CCOCC1)C(=O)N[C@@H](Cc1ccccc1)C(=O)N[C@@H](CC(C)C)C(=O)[C@@]1(C)CO1 [Carfilzomib] + CS(=O)(=O)N1CCN(Cc2cc3nc(-c4cccc5[nH]ncc45)nc(N4CCOCC4)c3s2)CC1 [Pictilisib] (partner 1 µM)
How it was run: as §1

[3] = compound: C[C@@H](Oc1cc(-c2cnn(C3CCNCC3)c2)cnc1N)c1c(Cl)ccc(F)c1Cl [Crizotinib] + CC1(C)CCC(c2ccc(Cl)cc2)=C(CN2CCN(c3ccc(C(=O)NS(=O)(=O)c4ccc(N[C@H](CCN5CCOCC5)CSc5ccccc5)c(S(=O)(=O)C(F)(F)F)c4)cc3)CC2)C1 [Navitoclax] (partner 0.5 µM)
How it was run: as §1

[4] = compound: C[C@@H](Oc1cc(-c2cnn(C3CCNCC3)c2)cnc1N)c1c(Cl)ccc(F)c1Cl [Crizotinib] + COc1cc2c(Oc3ccc(NC(=O)C4(C(=O)Nc5ccc(F)cc5)CC4)cc3F)ccnc2cc1OCCCN1CCOCC1 [Foretinib] (partner 0.25 µM)
How it was run: as §1

Cell Line	relative viability ([1]; first compound 0.001 µM)	relative viability ([1]; first compound 0.003162 µM)	relative viability ([1]; first compound 0.01 µM)	relative viability ([1]; first compound 0.03162 µM)	relative viability ([1]; first compound 0.1 µM)	relative viability ([2]; first compound 0.001 µM)	relative viability ([2]; first compound 0.003162 µM)	relative viability ([2]; first compound 0.01 µM)	relative viability ([2]; first compound 0.03162 µM)	relative viability ([2]; first compound 0.1 µM)	relative viability ([3]; first compound 0.01 µM)	relative viability ([3]; first compound 0.03162 µM)	relative viability ([3]; first compound 0.1 µM)	relative viability ([3]; first compound 0.3162 µM)	relative viability ([3]; first compound 1 µM)	relative viability ([4]; first compound 0.01 µM)	relative viability ([4]; first compound 0.03162 µM)	relative viability ([4]; first compound 0.1 µM)	relative viability ([4]; first compound 0.3162 µM)	relative viability ([4]; first compound 1 µM)
201T	1.13	1.14	1.16	1.02	0.29	0.67	0.659	0.668	0.727	0.666	1.2	1.18	1.16	1.19	1.21	0.982	1.12	1.09	1.13	1.14
A549	0.86	0.966	0.946	0.0732	0.0218	0.525	0.472	0.44	0.118	0.0573	1.22	1.15	1.19	1.17	1.18	0.919	1.05	0.908	0.853	1.02
A-427	1.02	1.13	1.09	0.474	0.121	0.776	0.734	0.632	0.296	0.092	0.95	1.03	1		1.02	0.943	1.04	1.04		1.04
ABC-1	0.912	0.815	0.292	0.17	0.224	0.691	0.471	0.237	0.249	0.216							1.02	1.05	1.31	1.09
BEN	0.575	0.69	0.577	0.577	0.339	0.635	0.679	0.587	0.523	0.249	0.0724	0.0669	0.0752	0.0683	0.0583	0.866	0.732	0.644	0.332	0.633
CAL-12T	1.08	1.1	1.06	0.807	0.103		0.767	0.586	0.304	0.143	1.19	1.22	1.06	1.18	1.21	1.11	1.17			1.24
COR-L23	0.991	1.16	0.996	0.196	0.0831	0.756	0.806	0.678	0.0485	0.0565	0.952	0.993	1.1	0.937	1.03	0.862	1	0.89	1.06	1.07
COR-L 105	1.31	1.13	1.05	0.779	0.26	0.414	0.437	0.346	0.289	0.23	0.771		0.908	0.871	0.76	1.07	1.02	1.12	0.797	1.15
Calu-6	0.889	0.933	0.842	0.127	0.0591	1.01	0.97	0.798	0.108	0.0567	0.8	0.766	0.836	0.774	0.735	0.855	0.938	0.86	0.947	0.927
ChaGo-K-1	0.941	0.991	0.859	0.62	0.172		1.27	0.839	0.523	0.348	0.965	0.922	1.1		0.854	0.838		0.939		0.939
EBC-1	0.0996	0.124	0.121	0.0586	0.0611	0.407	0.347	0.192	0.0926	0.117	0.49	0.344	0.12	0.152	0.16	0.0852	0.1	0.107	0.112	0.104
EKVX	0.51	0.945	1.24	0.309	0.765	0.443	0.492	0.542	0.476	0.169	0.879	1	0.95	0.871	0.961	0.772	0.752	0.717	0.444	0.991
EMC-BAC-2	1.02	1.08	1.12	0.975	0.221	0.503	0.612	0.586	0.574	0.258	1.13	1.19	1.13	1.12	1.15	0.984	0.952	1.02	1.04	1.07
EPLC-272H	0.901	0.764	0.601	0.0828	0.0461	0.188	0.363	0.322	0.0934	0.0877		1.1	1.26	1.1	1.15	0.669	0.627	0.669	0.636	0.679
H3255	0.876	0.952	0.939	0.815	0.327	0.433	0.52	0.426	0.423	0.177	0.53	0.499	0.521	0.484	0.487	0.849	0.866	1.11	0.581	0.877
HARA	0.93	0.963	1.1	0.0689	0.0561	0.422	0.609	0.385	0.0609	0.0598	1.13	1.08	1.13	1.13	1.1	0.924	0.705	0.858		0.877
